Data published in patent US20020022587A1, “Methods for effecting neuroprotection” (priority 2000, published 2002).

What was measured:
[1] = system: outwardly rectifying whole-cell K+ current of isolated PVN neurons; test: Voltage clamp recordings from dissociated PVN neurons, voltage ramps; format: cell-based, rat; settings: voltage ramps 100 mV/sec
Description: Male, Sprague-Dawley rats (150-250 g, Charles River, P.Q., Canada) were killed by decapitation, the brain was removed quickly from the skull and immersed in cold (1-4° C.) artificial cerebrospinal fluid (aCSF). The brain was blocked and 400 μm hypothalamic slices, which included the PVN, were prepared as described in Bains and Ferguson (NeuroReport 8(9-10):2101-05 (1997)). Slices were incubated in oxygenated aCSF (95% O2, 5% CO2) for at least 90 minutes at room temperature. Twenty minutes prior to recording, the slice was transferred into a modified interface type recording chamber and continuously perfused with aCSF at a rate of 1 ml/min.
For isolated neurons, pipettes of 1-4 MΩ were filled with a pipette solution containing (in mM): potassium-gluconate (130), EGTA(10), MgCl2 (1), HEPES (10), Na2ATP (4), GTP (0.1), adjusted to pH 7.2 with KOH. The standard bath solution contained (inmM): NaCl (140), KCl (5), MgCl2 (1), CaCl2 (2), HEPES (10), glucose (10) and […] tetrodotoxin (TTX) (Alamone Labs, Jerusalem, Israel). Signals were amplified, collected and processed using an Axopatch 200B (Axon Instruments) amplifier, a 1401plus A-D interface and Signal software from C.E.D. […]

[2] = system: parvocellular neurons of the paraventricular nucleus (PVN); test: NMDA agonist excitotoxicity after PVN microinjection, histological count of surviving parvocellular neurons, Sprague-Dawley rats; format: in vivo, rat
Description: Experiments were performed on male Sprague-Dawley rats (150-525 g. Charles River, P.Q., Canada). The animals were anesthetized with sodium pentobarbitol (65 mg/kg, ip), placed in a stereotaxic frame and the skull exposed, and a small burr hole drilled in the skull such that a cannula electrode (tip diameter 150 μm) could be advanced into the region of the PVN according to the coordinates of Paxinos and Watson (−0.9 mm Bregma, 0.5 mm lateral, 7.5 mm ventral) (Paxinos and Watson, The Rat Brain in Stereotaxic Coordinates, Academic Press, New York (1982)). Each animal received a 1.0 μl microinjection to each PVN (2×0.5 μl) according to one of the following protocols, saline/saline, saline/NMDA, 4-AP/saline, 4-AP/NMDA, angiotensin-II/saline, angiotensin-II/NMDA, saralasin (SAR)/NMDA. […]
The blocks were mounted, covered with Tissue-Tek O.C.T. compound (Sakura) and flash frozen in 2-methyl butane (cooled by dry ice) for 45 seconds. […] Only those animals with microinjection within the boundaries of PVN were further analyzed.
Magnocellular neurons were differentiated from parvocellular neurons and cellular material by specific morphological characteristics (Sawchenko and Swanson, J. Comp. Neuro. 218:121-44 (1983)). […] Comparative analyses were performed whereby neurons were counted in 20 μm sections following the initial emergence of PVN. […]

[3] = system: magnocellular neurons of the paraventricular nucleus (PVN); test: NMDA agonist excitotoxicity after PVN microinjection, histological count of surviving magnocellular neurons, Sprague-Dawley rats; format: in vivo, rat; settings: counted three days later
Description: Experiments were performed on male Sprague-Dawley rats (150-525 g. Charles River, P.Q., Canada). The animals were anesthetized with sodium pentobarbitol (65 mg/kg, ip), placed in a stereotaxic frame and the skull exposed, and a small burr hole drilled in the skull such that a cannula electrode (tip diameter 150 μm) could be advanced into the region of the PVN according to the coordinates of Paxinos and Watson (−0.9 mm Bregma, 0.5 mm lateral, 7.5 mm ventral) (Paxinos and Watson, The Rat Brain in Stereotaxic Coordinates, Academic Press, New York (1982)). Each animal received a 1.0 μl microinjection to each PVN (2×0.5 μl) according to one of the following protocols, saline/saline, saline/NMDA, 4-AP/saline, 4-AP/NMDA, angiotensin-II/saline, angiotensin-II/NMDA, saralasin (SAR)/NMDA. The incision was then closed and the animal received the analgesic Buprenorphin (0.03 mg/kg, SQ) to aid postoperative recovery. Animals were allowed to recover for three days after which they were overdosed with sodium pentobarbitol (100 mg/kg) and perfused with 0.9% saline followed by 10% formalin through the left ventricle of the heart. The brain was removed, placed in formalin overnight at […]. The brain was then cut into a smaller block contained PVN and stored in a 30% sucrose, 0.1 M phosphate buffer at 4° C. for at least two days.
The blocks were mounted, covered with Tissue-Tek O.C.T. compound (Sakura) and flash frozen in 2-methyl butane (cooled by dry ice) for 45 seconds. Using the Frigocut 280 (Reichart Jung), 20 μm coronal sections were cut through the area of PVN. These sections were mounted and cresyl violet stained. The histological locations of the microinjection sites were verified at the light microscope level by an observer unaware of the experimental conditions. Only those animals with microinjection within the boundaries of PVN were further analyzed.
Magnocellular neurons were differentiated from parvocellular neurons and cellular material by specific morphological characteristics (Sawchenko and Swanson, J. Comp. Neuro. 218:121-44 (1983)). In addition to the anatomical location of the neuron within PVN, morphological size was used to further characterize neuronal type. Neurons with soma diameter of approximately 20-25 μm and intact nuclei were characterized as viable magnocellular neurons. Neurons with soma diameter of between 15 and 20 μm were not included in the study, as they could not be reliably classified as belonging to either subpopulation. Histological sections were viewed under high magnification (40×) at the light microscope level and a grid was superimposed over each area of PVN. […] Comparative analyses were performed whereby neurons were counted in 20 μm sections following the initial emergence of PVN. […]

[4] = system: parvocellular neurons of the paraventricular nucleus (PVN); test: NMDA agonist excitotoxicity after PVN microinjection, surviving parvocellular neurons, spontaneously hypertensive rats; format: in vivo, rat; settings: NMDA agonist alone into PVN, counted three days later
From the text: (§1) To determine whether magnocellular neurons in hypertensive rats with increased central angiotensin-II lose their resistance to excitotoxins as a consequence of endogenous angiotensin-II inhibiting the transient K^+ conductance, NMDA agonist or vehicle control was microinjected into PVN and surviving neurons were counted three days later. Following such treatment, a similar loss of parvocellular neurons to that found in normotensive animals was observed (82±2% surviving), while the resistance of magnocellular neurons was no longer observed in these animals (71±5% surviving) (see FIG. 3 for specific N values). To confirm that angiotensin-II was responsible for this loss of resistance, the NMDA agonist was next microinjected into PVN of spontaneously hypertensive rats immediately following the angiotensin-II receptor antagonist saralasin. […] These findings provide the first direct evidence that elevated angiotensin-II concentrations in the central nervous system of hypertensive animals may contribute to the increased susceptibility for stroke and that these actions can be prevented by central angiotensin-II receptor blockade. […]
(§2) The blocks were mounted, covered with Tissue-Tek O.C.T. compound (Sakura) and flash frozen in 2-methyl butane (cooled by dry ice) for 45 seconds. […] Only those animals with microinjection within the boundaries of PVN were further analyzed. […]

[5] = system: magnocellular neurons of the paraventricular nucleus (PVN); test: NMDA agonist excitotoxicity after PVN microinjection, surviving magnocellular neurons, spontaneously hypertensive rats; format: in vivo, rat
From the text: as §1, §2

[6] = Li et al., Brain Res. Bull. 30:33-39 (1993); cited from earlier work
[7] = substance microinjected into PVN prior to NMDA agonist
[8] = substance microinjected into PVN alone

Compound: Nc1ccncc1 [4-AP, 4-aminopyridine]
- inhibition of outwardly rectifying whole-cell current ([1]; 100 μM): inhibited
- effect of 4-AP on parvocellular neuron population ([2]; 4-AP pretreatment before NMDA agonist microinjection): no significant effect
- proportion of parvocellular neurons surviving ([2]; NMDA agonist microinjection, PVN treated with 4-AP): 80.9±3.0%
- proportion of magnocellular neurons surviving [3, 7]: 78.9±4.6%

Compound: N[C@@H](C(=O)O)c1nnn[nH]1 [NMDA agonist, D-1-tetrazol-5yl-glycine]
- parvocellular neurons surviving [4]: 82±2%
- magnocellular neurons surviving ([5]; hypertensive rats, NMDA agonist alone into PVN, counted three days later): 71±5%
- proportion of magnocellular neurons surviving [3, 8]: 100.0±2.4%

Compound: CNCC(=O)N[C@@H](CCCN=C(N)N)C(=O)N[C@H](C(=O)N[C@@H](Cc1ccc(O)cc1)C(=O)N[C@H](C(=O)N[C@@H](Cc1cnc[nH]1)C(=O)N1CCC[C@H]1C(=O)N[C@@H](C)C(=O)O)C(C)C)C(C)C [saralasin, Sar^1Ala^8-angiotensin-II]
- crossing of the blood-brain barrier [6]: does not cross the blood-brain barrier
- effect on cell viability ([5]; SHR PVN, saralasin by itself): no effect

Compound: a-dendrotoxin [a-DTX]
- inhibition of outwardly rectifying whole-cell current, compared with 100 μM 4-AP ([1]; 1 μM): to an equal degree

Compound: angiotensin-II: octapeptide hormone, end product of the RAS, powerful arterial vasoconstrictor
- proportion of magnocellular neurons surviving [3, 8]: 97.4±4.2%
- proportion of magnocellular neurons surviving [3, 7]: 80.8±3.75%
